# From patent US8772348B2, “Materials and methods for pest control” (priority 2009, dated 2014)
# Where two headings read alike, the source gives them in different places.
# What was measured:
# [1] = system: Musca domestica; settings: formulation on plywood panels, 3.33 mg cm^−2 (footnote 1.67), 2 h exposure, mortality 24 h after
# Experimental: Briefly, after Musca domestica is exposed to formulations at concentration of 3.33 mg cm^−2 for 2 hours, each set is transferred into a separate glass jar, and held for another 24 hours.
# (§1) Plywood panels (225 cm^2) were treated with chemicals at a rate of 1.67 mg cm^−2. Panels were treated on day 0 and was held until exposure on post-treatment day. Mosquitoes were exposed to chemicals for 2 h, and mortality rate was assessed 24 h after initial exposure. Control contained formulation ingredients without semiochemicals.
# [2] = system: Aedes aegypti; settings: formulation on plywood panels at 1.67 mg cm^−2, 2 h exposure, mortality 24 h after initial exposure
# Experimental: Briefly, after mosquitoes are assayed on unpainted plywood panel boards with formulation at a concentration of 1.67 mg cm^−2 for 2 hours, they are transferred into a separate glass jar, and held for another 24 hours. The mortality rate is measured daily for a continuous 4 days (Day 1 starts at 24 hours after the transfer), as is determined using the same procedures as are illustrated in Example 2.
# as §1
# [3] = system: Musca domestica; settings: M. domestica; formulation on plywood panels at 1.67 mg cm^−2; mortality 24 h after
# Experimental: Briefly, each fly strain is divided into eight sets: three sets as the experiment, four sets as the positive control, and one set as the negative control. Flies are assayed on unpainted plywood panel boards that have been previously exposed to natural summer weather conditions for at least 10 days. […] The positive control set is treated with permethrin, geranyl acetone, rosalva or citronellol. The negative control set is treated with water. The formulation is applied at a uniform rate of 7.5 ml per 225 cm^2, sufficient to cover the entire panel without dripping. Subsequently, the treated panel boards are dried for about an hour.
# In each set, 20 adult flies are placed onto the panel boards. Flies are secured with wooden embroidery hoops, covered with a coarse mesh screen cloth previously sprayed with the respective formulation. After 4 hours, flies are transferred into a clean jar. The mortality rate is measured 24 hours after the transfer, and is determined using the same procedures as are illustrated in Example 2.
# as §1, with “mgcm^−2.” for “mg cm^−2.”, “and” for “and was”
compound,measurement,setting,value
"CC1(C)CCCC2=C1CC(C=O)CC2 (centres unmarked) [Cyclemone A, 2-naphthaldehyde, 1,2,3,4,5,6,7,8-octahydro-8,8-dimethyl]",% mortality on various days following treatment,[1]; day 1,100.00a %
same,% mortality on various days following treatment,[1]; day 2,49.25b %
same,% mortality on various days following treatment,[1]; day 3,48.25b %
same,% mortality on various days following treatment,[1]; day 5,27.75c %
same,% mortality on various days following treatment,[1]; day 7,18.75b %
same,% mortality on various days following treatment,[1]; day 14,9.00b %
same,% mortality on various days following treatment,[2]; day 1,100.00a %
same,% mortality on various days following treatment,[2]; day 2,72.00b %
same,% mortality on various days following treatment,[2]; day 3,28.0b %
same,% mortality on various days following treatment,[2]; day 4,13.0b %
same,% mortality,[3],48.20b %
